{
  "source": "patent US6664309B2",
  "about": "“Antimicrobial hot melt adhesive” (priority 2000, dated 2003)",
  "key": {"[1]": {"settings": "cited from earlier work"}, "Gram Positive Bacteria": {"system": "Gram Positive Bacteria", "assay": "Bacterial growth testing on inoculated agar plates, nonwoven with adhesive", "format": "cell-based, gram-positive cocci similar to a Staphylococcus type", "settings": "nonwoven with 3 gsm adhesive on inoculated agar plate, 35±2° C., 24 hours, observed for areas of non-growth", "experimental": "A control mix, a mix with 0.5% triclosan, and a mix with 0.75% triclosan, were made of each product at 300° F. Each of the adhesives were applied at 300° F. to a standard 15.3 grams/m^2 (gsm) nonwoven substrate on the CT225 coater using a Nordson Control Weave applicator at 0.5 inch wide. The adhesive add-on level was 3 gsm. The pattern was fiberized. The nonwoven/adhesive was combined to release paper for easy removal for testing.\nReady-made petri plates of agar were used for this experiment. Inoculates were prepared using a barium sulfate standard for a turbidity of 150,000,000 bacteria/ml. The plates were inoculated using a sterile swab by streaking bacteria in three directions (to ensure complete coverage). A midline was drawn on each plate with a marker. To one side a piece of nonwoven (0.5×1.0″) was set on the inoculated plate. A sample of nonwoven with adhesive was positioned on the other half. The plates were incubated at 35±2° C. for 24 hours and observed for areas of non-growth. Photographs were taken using a digital camera. The following table outlines the samples tested and the results for each bacteria type.\nBecause triclosan is a broad-spectrum bacteriostat, it was thought that it would work on both the gram positive and the gram-negative strains. […]"}},
  "data": [
    {"molecule": "Oc1cc(Cl)ccc1Oc1ccc(Cl)cc1Cl", "note": "[triclosan, 2,4,4′-trichloro-2′-hydroxy-diphenyl-ether]", "values": [
      {"measurement": "Solubility in water", "setting": "[1]", "value": "practically insoluble in water"},
      {"measurement": "Bacterial growth, Gram Positive Bacteria", "setting": "Gram Positive Bacteria", "value": "effective at inhibiting the growth"}
    ]}
  ]
}
